Data set [1] concerns the target T1, ABCC1 (Homo sapiens, UniProt P33527).
T1 construct: expressed in transfected cells; host or cells: MDCKII-ABCC1 (from Dr. Alfred Schinkel, The Netherlands Cancer Institute)
Kind of data set: daunorubicin accumulation assay (flow cytometry) in MDCKII-ABCC1 cells. Format: cell-based. The settings on record: 2 µM daunorubicin, 1 h, read-out: IC50, inhibition of daunorubicin efflux by ABCC1. The protocol:
The flow-cytometric inhibitory assay with daunorubicin and mitoxantrone was performed with minor modifications as described previously. MDCKII-par, MDCKII-ABCB1, MDCKII-ABCG2, and MDCKII-ABCC1 cell lines were seeded at densities of 22.0 × 10^4, 15.0 × 10^4, 25.0 × 10^4, and 22.0 × 10^4 cells/well, respectively, on a 12-well plate and then incubated for 24 h to reach approximately 70–80% confluence. Further steps including cell washing, the preparation of drug/model inhibitor dilutions, and their addition to cells were performed as described above. After the 10 min pre-incubation period, 2 µM daunorubicin (a substrate of ABCB1/ABCC1) or 1 µM mitoxantrone (ABCG2 substrate) were promptly added to all wells other than those containing background samples, then the plate was incubated for 1 h under standard conditions. The plates were subsequently placed on ice, the cells were washed twice with ice-cold 1× PBS, and 10× trypsin without phenol red was added. After complete trypsinization, the cells were vigorously resuspended in ice-cold 1× PBS containing 2% FBS. Samples were then transferred into test-tubes and kept on ice until their fluorescence could be measured using a flow cytometer (BD FACSCanto II, Allschwil, Switzerland). The excitation/emission wavelengths for daunorubicin and mitoxantrone were 490/565 and 640/670 nm, respectively.
Background: Flow cytometry measures light scatter and fluorescence of single cells or particles in a stream.

In another data set the target is T2, CYP2C19 (Homo sapiens, UniProt P33261).
T2 construct: purchased Thermo Fisher Scientific; host or cells: insect microsomal fractions
T2 sequence (P33261 whole entry): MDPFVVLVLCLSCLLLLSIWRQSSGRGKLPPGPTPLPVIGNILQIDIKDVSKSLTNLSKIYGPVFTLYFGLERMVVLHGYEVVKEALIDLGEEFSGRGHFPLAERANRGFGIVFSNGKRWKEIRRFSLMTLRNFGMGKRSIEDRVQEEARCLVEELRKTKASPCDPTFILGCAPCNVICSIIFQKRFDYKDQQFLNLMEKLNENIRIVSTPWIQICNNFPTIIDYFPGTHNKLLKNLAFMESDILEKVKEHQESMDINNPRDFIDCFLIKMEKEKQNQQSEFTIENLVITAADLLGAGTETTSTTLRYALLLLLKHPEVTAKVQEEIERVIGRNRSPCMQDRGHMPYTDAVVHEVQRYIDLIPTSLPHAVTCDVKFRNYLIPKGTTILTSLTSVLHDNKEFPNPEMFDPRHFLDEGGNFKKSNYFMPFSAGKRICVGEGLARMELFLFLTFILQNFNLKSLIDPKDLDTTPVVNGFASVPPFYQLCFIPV
In words: Vivid CYP screening kit, recombinant CYP2C19. Format: biochemical. The settings on record: recombinant enzyme, 15 min incubation, absolute IC50; read-out: CYP2C19 inhibition IC50. The protocol: (§1) CYP inhibitory assay was performed as described previously. Experiments were performed with commercial Vivid CYP screening kits containing insect microsomal fractions enriched with a specific human CYP isoform, human CYP reductase, and in some cases, human cytochrome b5. The potential inhibitory activity of ensartinib toward CYP1A2, CYP2B6, CYP2C8, CYP2C9, CYP2C19, CYP2D6, CYP3A4, and CYP3A5 (i.e., all CYP isoforms that drug regulatory authorities recommend for testing of inhibition by new molecular entities) was then examined. Experiments were performed using a kinetic mode in black 96-well plates according to the manufacturer´s instructions. Briefly, 5-point serial dilutions of ensartinib or the model inhibitor recommended by the manufacturer in buffer were transferred into the wells, then a master mix consisting of a CYP isoenzyme with an NADPH regeneration system in buffer was added. After a 10 min pre-incubation, the reaction was initiated by adding a mixture of NADP^+ and the appropriate Vivid substrate, after which fluorescence was measured at 1 min intervals for 60 min using an Infinite M200 Pro microplate reader (Tecan, Männedorf, Switzerland). The enzyme concentration and incubation interval used for data evaluation (15 min) placed the systems within the linear regions of the appropriate reaction velocity curves. […]

The next data set concerns the target T3, CYP1A2 (Homo sapiens, UniProt P05177).
T3 construct: purchased Thermo Fisher Scientific; host or cells: insect microsomal fractions
Kind of data set: Vivid CYP screening kit, recombinant CYP1A2. Format: biochemical. The settings on record: recombinant enzyme. The protocol:
as §1

For another data set, the system named is HepG2-CYP3A4 cells. In words: Docetaxel combination assay (MTT), HepG2-CYP3A4. Format: cell-based, human. The conditions noted are these: 1 µM docetaxel. The protocol: (§2) MTT proliferation assay was performed as described previously.
(§3) Cell viability was measured after a 48 h incubation using the MTT method as described above. […] Sensitization effects of < 0%, 0%, and >0% indicate antagonism, additivity, and synergism, respectively.

The next data set concerns HepG2-EV cells. In words: Docetaxel combination assay (MTT), HepG2-EV. Format: cell-based, human. The conditions noted are these: 1 µM docetaxel, <0% antagonism, =0% additivity, >0% synergism. The protocol:
as §2, §3

The target of data set [2] is T1, ABCC1. Kind of data set: MDCKII monolayer transport assay, MDCKII-ABCC1. Format: in vitro ADME. The settings on record: dog, 1 µM ensartinib, read-out: transport ratio (r), BA/AB. The protocol:
Transport assays were performed on microporous polycarbonate membrane filters (3 µm pore size, 24 mm diameter, Transwell 3414; Costar, Corning, NY, USA) using MDCKII parental as well as ABCB1-, ABCG2-, and ABCC1-overexpressing MDCKII cells. The cells were seeded at a density of 1.5 × 10^6 cells per insert and cultured to full confluence for 7 days with media exchanges on the second and fourth days. Before the start of the transport experiments, inserts were washed with 1 × PBS on both the apical and basal sides. The cells were then preincubated in Opti-MEM with or without model inhibitors (1 µM LY335979, 1 µM Ko143, or 25 µM MK-571). […] Ensartinib levels in samples were measured by UHPLC-MS/MS (see below). […]
Samples from the monolayer transport assays (10 µL) were mixed with 100 µL of acetonitrile and 100 µL of methanol, vortexed for 15 min, and centrifuged at 14,500 rpm for 3 min. […] The MS source parameters were set to the following: drying gas, 320 °C, flow rate 10 l/min; sheath gas, 400 °C at 12 l/min; nebulizer pressure 25 psi; capillary voltage 4000 V; nozzle voltage 0 V. Transitions of [M+H]^+ ions were detected using a dwell time of 150 ms, a cell acceleration of 4 V, and fragmentor voltages of 137 V for 547→357, 257 and 120 transitions (corresponding to collision energies of 16, 32, and 56 V).

SMILES strings stand for the structures.

T3 sequence (P05177 2-516 limits assumed): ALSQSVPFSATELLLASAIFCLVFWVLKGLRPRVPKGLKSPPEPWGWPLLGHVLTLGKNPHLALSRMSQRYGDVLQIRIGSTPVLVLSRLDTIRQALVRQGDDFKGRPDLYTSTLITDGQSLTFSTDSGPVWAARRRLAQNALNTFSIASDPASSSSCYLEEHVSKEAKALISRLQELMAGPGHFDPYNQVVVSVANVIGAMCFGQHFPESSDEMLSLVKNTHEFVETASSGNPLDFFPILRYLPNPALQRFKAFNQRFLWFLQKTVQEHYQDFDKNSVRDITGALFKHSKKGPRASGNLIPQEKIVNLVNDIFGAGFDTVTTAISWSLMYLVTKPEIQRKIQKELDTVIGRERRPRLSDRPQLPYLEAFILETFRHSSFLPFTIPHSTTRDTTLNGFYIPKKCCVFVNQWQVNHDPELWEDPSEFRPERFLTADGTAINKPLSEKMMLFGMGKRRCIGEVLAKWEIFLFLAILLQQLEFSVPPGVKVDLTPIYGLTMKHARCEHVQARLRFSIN
T1 sequence (P33527 whole entry): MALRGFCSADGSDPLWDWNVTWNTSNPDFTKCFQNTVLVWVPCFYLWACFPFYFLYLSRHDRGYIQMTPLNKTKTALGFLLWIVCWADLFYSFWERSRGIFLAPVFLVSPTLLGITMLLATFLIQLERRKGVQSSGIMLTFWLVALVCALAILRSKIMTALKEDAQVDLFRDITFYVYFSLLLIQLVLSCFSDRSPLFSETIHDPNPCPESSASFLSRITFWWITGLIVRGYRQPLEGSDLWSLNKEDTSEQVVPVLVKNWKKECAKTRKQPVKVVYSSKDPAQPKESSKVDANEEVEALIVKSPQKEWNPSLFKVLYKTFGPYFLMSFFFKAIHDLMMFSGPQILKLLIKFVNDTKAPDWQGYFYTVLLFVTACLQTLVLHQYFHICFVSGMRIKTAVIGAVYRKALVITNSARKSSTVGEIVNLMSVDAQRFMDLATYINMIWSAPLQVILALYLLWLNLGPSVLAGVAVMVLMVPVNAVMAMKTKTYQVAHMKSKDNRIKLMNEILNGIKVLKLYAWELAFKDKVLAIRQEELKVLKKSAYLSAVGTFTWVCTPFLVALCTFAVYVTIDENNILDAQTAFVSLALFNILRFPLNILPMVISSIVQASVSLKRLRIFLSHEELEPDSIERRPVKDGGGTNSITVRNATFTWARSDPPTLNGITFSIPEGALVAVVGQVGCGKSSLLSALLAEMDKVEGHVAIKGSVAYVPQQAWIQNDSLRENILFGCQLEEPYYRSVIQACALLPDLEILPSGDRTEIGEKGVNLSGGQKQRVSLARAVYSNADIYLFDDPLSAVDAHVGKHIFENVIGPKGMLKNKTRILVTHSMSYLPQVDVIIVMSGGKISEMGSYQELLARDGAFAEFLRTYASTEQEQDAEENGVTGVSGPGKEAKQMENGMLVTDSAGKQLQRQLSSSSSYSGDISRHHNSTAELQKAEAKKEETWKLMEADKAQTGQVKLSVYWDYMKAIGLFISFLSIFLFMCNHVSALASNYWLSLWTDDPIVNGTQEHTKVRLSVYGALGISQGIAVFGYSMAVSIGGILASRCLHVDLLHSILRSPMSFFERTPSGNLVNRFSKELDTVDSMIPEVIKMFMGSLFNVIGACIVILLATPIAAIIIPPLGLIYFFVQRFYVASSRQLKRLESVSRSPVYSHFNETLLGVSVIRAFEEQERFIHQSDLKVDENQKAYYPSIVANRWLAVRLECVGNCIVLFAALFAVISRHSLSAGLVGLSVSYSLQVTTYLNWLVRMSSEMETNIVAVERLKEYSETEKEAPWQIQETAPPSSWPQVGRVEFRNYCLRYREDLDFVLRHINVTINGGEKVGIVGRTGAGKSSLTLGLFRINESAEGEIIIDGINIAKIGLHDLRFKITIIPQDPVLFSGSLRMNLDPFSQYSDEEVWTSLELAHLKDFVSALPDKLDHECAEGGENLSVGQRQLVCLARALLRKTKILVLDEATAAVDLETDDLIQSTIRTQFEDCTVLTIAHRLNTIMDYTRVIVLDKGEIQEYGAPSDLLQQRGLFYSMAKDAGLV

Take `C[C@@H]1CN(C(=O)c2ccc(NC(=O)c3cc(O[C@H](C)c4c(Cl)ccc(F)c4Cl)c(N)nn3)cc2)C[C@H](C)N1` [ensartinib, Ensartinib]: the IC50 (usually the concentration that inhibits the measured activity by half) was more than 50 µM on ABCC1 [1]; 14.6 µM at CYP2C19; more than 50 µM at CYP1A2 (15 min incubation, absolute IC50, read-out: CYP1A2 inhibition IC50). Besides, the “inhibitory effect on CYP1A2 (in words)” value on CYP1A2 is “no appreciable inhibitory effect”. For the same compound, the “docetaxel sensitization in CYP3A4-overexpressing cells” value in the data set with HepG2-CYP3A4 cells (25 µM ensartinib (but not 15 µM), 48 h MTT) is listed as “comparable to that induced by ketoconazole”. Also, the “sensitization effect of combination with docetaxel” value in the data set with HepG2-CYP3A4 cells (HepG2-CYP3A4, <0% antagonism, =0% additivity, >0% synergism) is listed as “synergistic”; in the data set on HepG2-EV cells, “antagonistic”. Further, the efflux ratio at 4 h, 1 µM at ABCC1 [2] came to 1.29.
